For one substance, Change in weight results are on record in paper PMC6151468, “Efficacy of Bioactive Cyclic Peptides in Rheumatoid Arthritis: Translation from In Vitro to In Vivo Models” (Molecules : A Journal of Synthetic Chemistry and Natural …, 2017).

In this test the test system is Collagen Antibody-Induced Arthritis (CAIA) model. Put plainly: CAIA model in mice, first study. It counts as in vivo. As to conditions: ten-day period; Humira 10 mg/kg bolus day 1; Lex 5.2 0.32 mg/kg/day i.p.; compared with stimulated untreated animals; Figure 11. An excerpt: In light of the ability of cyclic peptides to alter the behaviour of macrophages, down-regulating TNF secretion both in vitro and in vivo, the investigation was extended to examine whether such peptides could have an impact on inflammatory diseases such as rheumatoid arthritis, where activation of macrophages, and secretion of TNF, is an important component. The CAIA model was chosen, as its use of lipopolysaccharide as one of the stimulants mirrors the models already employed. The other inducer of inflammation is a cocktail of anti-collagen antibodies, which are agents thought to contribute to disease in the human condition. A scheme of the experimental design is shown in Figure 8, and detailed methodology is provided in the Materials and Methods section of this article. […]
A range of different parameters was measured, as follows: (i) clinical score—a subjective assessment of the number of joints in each paw affected; (ii) paw thickness—measurement of oedema in the paws, reflecting the severity of inflammation; (iii) TNF levels—rise in the bloodstream immediately after LPS administration; (iv) weight change—loss of weight resulting from inflammation. […]

Regarding adalimumab [Humira], the Change in weight result was “much reduced”.
